Laboratory results from patent US10676514B2, “CDCA1-derived peptide and vaccine containing same” (ONCOTHERAPY SCIENCE, INC., priority 2014, dated 2020).
“Also recorded” adds a separate entry of the source.

Assays:
[1] = system: peptide-pulsed C1R-A33 cells; experiment: IFN-gamma ELISPOT assay of peptide-induced CTLs (HLA-A*3303); type: cell-based, human; settings: CTLs induced from HLA-A*3303-positive donors, peptide-pulsed C1R-A33 vs control
Source text: (§1) Monocyte-derived dendritic cells (DCs) were used as the antigen-presenting cell to induce a cytotoxic T lymphocyte (CTL) response against peptides presented on human leukocyte antigens (HLAs). As described in the other sections, DCs were generated in vitro (Nakahara S et al., Cancer Res 2003, 63(14): 4112-8). Specifically, peripheral-blood mononuclear cells isolated from healthy volunteers (HLA-A*3303-positive) with the Ficoll-Paque plus solution (Pharmacia) were separated by attaching to plastic tissue culture dishes (Becton Dickinson) and concentrated as a monocyte fraction. The monocyte-concentrated population was cultured in the presence of 1000 IU/ml granulocyte macrophage colony-stimulating factor (R&D System) and 1000 IU/ml interleukin(IL)-4 (R&D System) in an AIM-V medium (Invitrogen) containing 2% heat-inactivated autologous serum (AS). After seven days of culturing, the cytokine-induced DCs were pulsed with 20 micro-g/ml each of the synthesized peptides in an AIM-V medium at 37 degrees C. for three hours in the presence of 3 micro-g/ml beta 2-microglobulin. The generated cells appeared to express on their cell surface DC-associated molecules such as CD80, CD83, CD86 and HLA class II (data not shown). Next, these peptide-pulsed DCs were inactivated by X-ray irradiation (20 Gy), and mixed in a 1:20 ratio with autologous CD8^+ T cells obtained by positive selection using the CD8 Positive Isolation Kit (Dynal). These culture products were seeded in a 48-well plate (Corning). Each well was made to contain 1.5×10^4 peptide-pulsed DCs, 3×10^5 CD8^+ T cells and 10 ng/ml IL-7 (R&D System) in 0.5 ml of the AIM-V/2% AS medium. Three days later, these culture products were added with a final concentration of 20 IU/ml IL-2 (CHIRON). On day 7 and day 14, T cells were further stimulated with peptide-pulsed autologous DCs. The DCs were prepared every time by the same method as above. On day 21, after the third peptide stimulation, CTLs were examined against the peptide-pulsed CIR-A33 cell by a human interferon (IFN)-gamma enzyme-linked immunospot (ELISPOT) assay (Tanaka H et al., Br J Cancer 2001, 84(1): 94-9; Umano Y et al., Br J Cancer 2001, 84(8): 1052-7; Uchida N et al., Clin Cancer Res 2004, 10(24): 8577-86; Suda T et al., Cancer Sci 2006, 97(5): 411-9; Watanabe T et al., Cancer Sci 2005, 96(8): 498-506).
(§2) Specifically, peptide-pulsed C1R-A33 (1×10^4 cells/well) was prepared as the stimulator cell. The induced CTLs, i.e., CTL lines and CTL clones, were used as the responder cell. The IFN-gamma ELISPOT assay and IFN-gamma ELISA were performed according to the manufacturer's manual.

[2] = system: peptide-pulsed C1R-A33; experiment: IFN-gamma ELISA of CTL lines and CTL clones (HLA-A*3303); type: cell-based, human
Procedure: (§3) CTLs were propagated in culture using methods similar to those disclosed by Riddell et al. (Walter E A et al., N Engl J Med 1995, 333(16): 1038-44; Riddell S R et al., Nat Med 1996, 2(2): 216-23). The CTLs were co-cultured in a total of 25 ml AIM-V medium containing 5% AS (AIM-V/5% AS) and 40 ng/ml anti-CD3 antibody with two types of Mitomycin C-treated human B lymphoblastoid cell lines at 5×10^6 cells/flask. One day after beginning of the culturing, 120 IU/ml IL-2 was added to the culture. On days 5, 8 and 11, a fresh AIM-V/5% AS medium containing 30 IU/ml IL-2 was added to the culture (Tanaka H et al., Br J Cancer 2001, 84(1): 94-9; Umano Y et al., Br J Cancer 2001, 84(8): 1052-7; Uchida N et al., Clin Cancer Res 2004, 10(24): 8577-86; Suda T et al., Cancer Sci 2006, 97(5): 411-9; Watanabe T et al., Cancer Sci 2005, 96(8): 498-506).
(§4) Dilution of CTLs was carried out to make 0.3, 1 and 3 cells/well in 96 round-bottomed microtiter plates (Nalge Nunc International). The CTLs were co-cultured with two types of Mitomycin C-treated human B lymphoblastoid cell lines at 1×10^4 cells/well in a total of 150 micro-l/well AIM-V/5% AS medium with 30 ng/ml anti-CD3 antibody and 125 IU/ml IL-2. Ten days later, IL-2 was added to the medium at 50 micro-l/well to reach a final concentration of 125 IU/ml. On day 14, the CTL activity was tested, and the CTL clones were propagated using the same method as described above (Uchida N et al., Clin Cancer Res 2004, 10(24): 8577-86; Suda T et al., Cancer Sci 2006, 97(5): 411-9; Watanabe T et al., Cancer Sci 2005, 96(8): 498-506).
as §2

[3] = system: COS7 cells transfected with CDCA1 and HLA-A*3303; experiment: Specific CTL activity against target cells expressing CDCA1 and HLA-A*3303; type: cell-based, African green monkey; settings: listed as CDCA1-A33-9-43
Source text: A cDNA encoding the open-reading frame of a target gene or HLA-A*3303 was amplified by PCR. The PCR-amplified product was cloned into an expression vector. Either or both of the target gene-expressing vector and the HLA-A*3303-expressing vector were transfected into COS7, which is a cell line negative for the target gene and HLA, using Lipofectamine 2000 (Invitrogen) following the manufacturer's recommended protocol. Two days after transfection, the transfected cells were harvested using versene (Invitrogen), and used as the target cell for CTL activity assay (5×10^4 cells/well).
The CTL clone established against CDCA1-A33-9-43 (SEQ ID NO: 27) was investigated for its ability to recognize target cells expressing CDCA1 and the HLA-A*3303 molecule. COS7 cells transfected with both full-length CDCA1 and the HLA-A*3303 gene (a specific model of target cells expressing CDCA1 and the HLA-A*3303 gene) were prepared as the target cell. COS7 cells transfected with either full-length CDCA1 or HLA-A*3303 were prepared as the control.

[4] = system: peptide-pulsed C1R-A03; experiment: IFN-gamma ELISPOT assay of peptide-induced CTLs (HLA-A*0301); type: cell-based, human; settings: CTLs induced from HLA-A*0301-positive donors, peptide-pulsed C1R-A03 vs control
Source text: as §1, with “(HLA-A*0301-positive)” for “(HLA-A*3303-positive)”, “C1R-A03” for “CIR-A33 cell”
(§5) Specifically, peptide-pulsed C1R-A03 (1×10^4 cells/well) was prepared as the stimulator cell. The induced CTLs, i.e., CTL lines and CTL clones, were used as the responder cell. The IFN-gamma ELISPOT assay and IFN-gamma ELISA were performed according to the manufacturer's manual.

[5] = system: peptide-pulsed C1R-A03; experiment: IFN-gamma ELISA of CTL lines and CTL clones (HLA-A*0301); type: cell-based, human
Procedure: as §3, §4, §5

[6] = system: peptide-pulsed C1R-A11 cells; experiment: IFN-gamma ELISPOT assay of peptide-induced CTLs (HLA-A*1101); type: cell-based, human; settings: CTLs induced from HLA-A*1101-positive donors, peptide-pulsed C1R-A11 vs control, listed as CDCA1-A11-9-343
Source text: as §1, with “(HLA-A*1101-positive)” for “(HLA-A*3303-positive)”, “C1R-A11 cells” for “CIR-A33 cell”
Specifically, peptide-pulsed C1R-A11 (1×10^4 cells/well) was prepared as the stimulator cell. The induced CTLs, i.e., CTL lines and CTL clones, were used as the responder cell. The IFN-gamma ELISPOT assay and IFN-gamma ELISA were performed according to the manufacturer's manual.

## EVLHMIYMR (a peptide derived from CDCA1) [SEQ ID NO: 27]
[1]
  peptide-specific CTL activity (IFN-gamma production): potent IFN-gamma production
[2]; CTL clones by limiting dilution, peptide-pulsed C1R-A33, listed as CDCA1-A33-9-43
  IFN-gamma production of CTL clones: Potent IFN-gamma production
[2]; CTL lines, peptide-pulsed vs non-pulsed target cells, HLA-A*3303
  IFN-gamma production of CTL lines: potent IFN-gamma production
[3]; COS7 cells transfected with both CDCA1 and HLA-A*3303
  specific CTL activity of CTL clone: specific CTL activity; also recorded: potent CTL activity
[3]; COS7 cells transfected with either full-length CDCA1 or HLA-A*3303
  specific CTL activity of CTL clone against control cells: a significant specific CTL activity was not shown; also recorded: a significant specific CTL activity was not detected

## KMKDTVQKLK (a peptide derived from CDCA1) [SEQ ID NO: 47]
[4]; listed as CDCA1-A03-10-257
  peptide-specific CTL activity (IFN-gamma production): potent IFN-gamma production; also recorded: significant specific CTL activity
[5]; CTL clones by limiting dilution, peptide-pulsed C1R-A03, listed as CDCA1-A03-10-257
  IFN-gamma production of CTL clones: Potent IFN-gamma production
[5]; CTL lines, peptide-pulsed vs non-pulsed target cells, HLA-A*0301
  IFN-gamma production of CTL lines: potent IFN-gamma production

## RLMIVKKEK (a peptide derived from CDCA1) [SEQ ID NO: 10]
[6]
  peptide-specific CTL activity (IFN-gamma production): potent IFN-gamma production; also recorded: significant specific CTL activity
[4]; listed as CDCA1-A03-9-343
  peptide-specific CTL activity (IFN-gamma production): no specific IFN-gamma production; also recorded: specific IFN-gamma production was not observed
